From ChEMBL document CHEMBL5649166, “RIP3 induces apoptosis independent of pronecrotic kinase activity” (Mol Cell, 2014) come the findings set out here.

For test [1], the target named is Dual specificity protein kinase CLK3 (Homo sapiens) (UniProt P49761). Nature of the test: Residual activity of human CLK3 using myelin basic protein as substrate at 1 uM in presence of 32P-ATP by Hotspot assay relative to control.
Test [2] has as its target Casein kinase II subunit alpha' (Homo sapiens) (UniProt P19784). Description: Inhibition of human CK2a2 using RRRDDDSDDD as substrate at 1 uM in presence of 32P-ATP by Hotspot assay relative to control; values are per cent of control.
Test [3] concerns the target T1, Discoidin domain-containing receptor 2 (Homo sapiens) (UniProt Q16832).
T1 sequence (whole entry): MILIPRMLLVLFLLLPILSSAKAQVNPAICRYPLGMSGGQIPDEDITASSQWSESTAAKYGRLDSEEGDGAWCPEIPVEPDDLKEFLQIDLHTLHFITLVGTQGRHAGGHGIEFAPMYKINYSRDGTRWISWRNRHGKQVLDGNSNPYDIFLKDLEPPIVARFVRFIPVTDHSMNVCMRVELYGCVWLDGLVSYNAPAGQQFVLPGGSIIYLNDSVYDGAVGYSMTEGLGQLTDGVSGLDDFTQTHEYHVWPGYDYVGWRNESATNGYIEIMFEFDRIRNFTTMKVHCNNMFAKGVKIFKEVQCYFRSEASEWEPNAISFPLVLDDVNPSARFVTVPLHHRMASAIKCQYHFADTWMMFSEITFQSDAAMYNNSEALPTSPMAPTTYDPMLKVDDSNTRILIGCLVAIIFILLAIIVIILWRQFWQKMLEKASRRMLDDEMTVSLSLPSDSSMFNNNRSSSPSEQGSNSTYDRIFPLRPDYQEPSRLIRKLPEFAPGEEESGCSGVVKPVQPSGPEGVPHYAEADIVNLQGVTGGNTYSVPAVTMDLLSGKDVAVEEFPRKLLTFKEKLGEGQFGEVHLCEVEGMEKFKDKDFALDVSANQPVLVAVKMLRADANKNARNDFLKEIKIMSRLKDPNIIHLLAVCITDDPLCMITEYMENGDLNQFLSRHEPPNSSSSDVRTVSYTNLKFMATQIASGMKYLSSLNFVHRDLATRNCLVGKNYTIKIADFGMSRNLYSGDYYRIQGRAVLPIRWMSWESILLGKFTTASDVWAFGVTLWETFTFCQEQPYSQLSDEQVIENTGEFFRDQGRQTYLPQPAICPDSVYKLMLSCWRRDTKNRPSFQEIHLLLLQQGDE
Description: Inhibition of human DDR2 using KKSRGDYMTMQIG as substrate at 1 uM in presence of 32P-ATP by Hotspot assay relative to control; values are per cent of control.

For test [4], the target named is Calcium/calmodulin-dependent protein kinase type 1 (Homo sapiens) (UniProt Q14012). Description: Inhibition of human CAMK1a using KKALRRQETVDAL as substrate at 1 uM in presence of 32P-ATP by Hotspot assay relative to control; values are per cent of control.
The target in test [5] is Protein-tyrosine kinase 6 (Homo sapiens) (UniProt Q13882). Description: Inhibition of human BRK using poly[Glu:Tyr] (4:1) as substrate at 1 uM in presence of 32P-ATP by Hotspot assay relative to control; values are per cent of control.
Test [6] addresses MAP kinase-interacting serine/threonine-protein kinase 2 (Homo sapiens) (UniProt Q9HBH9). Description: Inhibition of human MNK2 using myelin basic protein as substrate at 1 uM in presence of 32P-ATP by Hotspot assay relative to control; values are per cent of control.
Test [7] addresses T2, Mitogen-activated protein kinase 12 (Homo sapiens) (UniProt P53778).
T2 sequence (whole entry): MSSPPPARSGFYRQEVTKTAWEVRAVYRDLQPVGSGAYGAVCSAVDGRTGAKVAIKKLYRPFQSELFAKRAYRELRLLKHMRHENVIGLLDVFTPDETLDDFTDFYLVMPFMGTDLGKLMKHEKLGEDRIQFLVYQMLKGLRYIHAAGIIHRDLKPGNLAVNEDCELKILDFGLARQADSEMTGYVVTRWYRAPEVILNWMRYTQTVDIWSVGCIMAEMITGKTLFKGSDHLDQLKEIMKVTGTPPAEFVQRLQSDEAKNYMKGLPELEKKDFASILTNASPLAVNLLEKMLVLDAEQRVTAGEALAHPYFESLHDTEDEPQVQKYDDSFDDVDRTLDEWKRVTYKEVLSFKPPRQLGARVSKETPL
Description: Inhibition of human P38g using myelin basic protein as substrate at 1 uM in presence of 32P-ATP by Hotspot assay relative to control; values are per cent of control.

The target in test [8] is T3, Tyrosine-protein kinase receptor TYRO3 (Homo sapiens) (UniProt Q06418).
T3 sequence (whole entry): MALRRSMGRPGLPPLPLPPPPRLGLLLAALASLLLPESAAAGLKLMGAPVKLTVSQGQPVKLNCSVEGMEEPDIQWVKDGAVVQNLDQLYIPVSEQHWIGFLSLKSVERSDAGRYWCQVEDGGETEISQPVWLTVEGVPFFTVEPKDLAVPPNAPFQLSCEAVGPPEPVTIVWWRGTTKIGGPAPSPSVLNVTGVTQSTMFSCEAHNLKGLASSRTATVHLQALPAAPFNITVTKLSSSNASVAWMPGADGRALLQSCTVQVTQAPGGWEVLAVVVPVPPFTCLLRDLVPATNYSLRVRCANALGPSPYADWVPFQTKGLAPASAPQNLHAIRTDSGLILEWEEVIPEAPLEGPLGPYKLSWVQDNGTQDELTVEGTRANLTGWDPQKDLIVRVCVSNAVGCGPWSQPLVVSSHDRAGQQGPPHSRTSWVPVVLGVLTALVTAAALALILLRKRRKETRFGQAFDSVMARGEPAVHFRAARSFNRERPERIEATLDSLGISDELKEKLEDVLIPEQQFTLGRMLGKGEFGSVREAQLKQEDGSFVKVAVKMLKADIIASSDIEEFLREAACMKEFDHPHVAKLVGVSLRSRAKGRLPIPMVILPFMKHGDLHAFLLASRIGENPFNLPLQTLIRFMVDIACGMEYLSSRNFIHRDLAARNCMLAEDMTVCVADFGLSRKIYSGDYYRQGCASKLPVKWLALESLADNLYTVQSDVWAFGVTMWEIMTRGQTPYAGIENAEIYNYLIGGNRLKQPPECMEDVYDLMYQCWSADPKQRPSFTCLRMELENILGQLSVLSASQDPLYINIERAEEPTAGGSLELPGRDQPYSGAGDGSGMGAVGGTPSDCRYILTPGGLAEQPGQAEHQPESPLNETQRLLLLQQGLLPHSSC
Nature of the test: Inhibition of human TYRO3/SKY using poly[Glu:Tyr] (4:1) as substrate at 1 uM in presence of 32P-ATP by Hotspot assay relative to control; values are per cent of control.

Sequence of MAP kinase-interacting serine/threonine-protein kinase 2 (Homo sapiens) (Q9HBH9 whole entry, looked up): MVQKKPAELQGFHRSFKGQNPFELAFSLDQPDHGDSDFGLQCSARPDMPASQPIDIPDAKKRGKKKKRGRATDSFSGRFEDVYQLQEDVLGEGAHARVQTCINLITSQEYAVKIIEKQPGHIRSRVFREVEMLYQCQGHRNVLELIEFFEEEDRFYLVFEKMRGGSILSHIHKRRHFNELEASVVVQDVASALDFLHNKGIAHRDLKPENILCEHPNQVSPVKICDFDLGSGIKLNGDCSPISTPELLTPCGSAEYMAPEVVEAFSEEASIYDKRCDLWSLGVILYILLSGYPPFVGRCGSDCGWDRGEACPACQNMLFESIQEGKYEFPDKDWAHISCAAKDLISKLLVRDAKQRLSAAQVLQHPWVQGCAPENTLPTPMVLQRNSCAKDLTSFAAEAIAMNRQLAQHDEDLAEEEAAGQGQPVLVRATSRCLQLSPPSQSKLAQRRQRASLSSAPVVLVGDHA
Sequence of Casein kinase II subunit alpha' (Homo sapiens) (P19784 whole entry, looked up, the tested form may be a part): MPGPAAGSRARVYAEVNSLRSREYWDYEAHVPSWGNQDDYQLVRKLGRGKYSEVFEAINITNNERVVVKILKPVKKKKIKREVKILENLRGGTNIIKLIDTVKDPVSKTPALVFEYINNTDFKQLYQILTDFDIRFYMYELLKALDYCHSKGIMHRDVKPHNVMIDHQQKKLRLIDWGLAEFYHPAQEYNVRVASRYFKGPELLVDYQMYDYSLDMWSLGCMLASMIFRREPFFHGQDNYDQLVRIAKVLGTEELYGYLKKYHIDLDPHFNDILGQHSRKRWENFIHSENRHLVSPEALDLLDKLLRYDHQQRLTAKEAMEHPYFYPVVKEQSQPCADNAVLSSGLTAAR
Sequence of Dual specificity protein kinase CLK3 (Homo sapiens) (P49761 whole entry, looked up): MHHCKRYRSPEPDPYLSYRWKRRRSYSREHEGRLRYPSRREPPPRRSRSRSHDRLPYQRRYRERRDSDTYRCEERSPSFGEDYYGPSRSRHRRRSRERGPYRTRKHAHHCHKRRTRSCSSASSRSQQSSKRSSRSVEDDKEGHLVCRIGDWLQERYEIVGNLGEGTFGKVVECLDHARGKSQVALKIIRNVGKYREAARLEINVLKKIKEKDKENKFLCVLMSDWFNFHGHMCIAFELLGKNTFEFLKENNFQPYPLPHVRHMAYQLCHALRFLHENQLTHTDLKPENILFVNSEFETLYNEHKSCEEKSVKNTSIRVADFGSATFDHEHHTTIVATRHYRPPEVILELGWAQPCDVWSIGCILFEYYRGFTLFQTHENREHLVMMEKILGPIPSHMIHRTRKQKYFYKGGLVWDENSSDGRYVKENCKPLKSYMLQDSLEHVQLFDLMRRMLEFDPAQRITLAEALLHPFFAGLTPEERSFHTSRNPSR
Sequence of Calcium/calmodulin-dependent protein kinase type 1 (Homo sapiens) (Q14012 whole entry, looked up): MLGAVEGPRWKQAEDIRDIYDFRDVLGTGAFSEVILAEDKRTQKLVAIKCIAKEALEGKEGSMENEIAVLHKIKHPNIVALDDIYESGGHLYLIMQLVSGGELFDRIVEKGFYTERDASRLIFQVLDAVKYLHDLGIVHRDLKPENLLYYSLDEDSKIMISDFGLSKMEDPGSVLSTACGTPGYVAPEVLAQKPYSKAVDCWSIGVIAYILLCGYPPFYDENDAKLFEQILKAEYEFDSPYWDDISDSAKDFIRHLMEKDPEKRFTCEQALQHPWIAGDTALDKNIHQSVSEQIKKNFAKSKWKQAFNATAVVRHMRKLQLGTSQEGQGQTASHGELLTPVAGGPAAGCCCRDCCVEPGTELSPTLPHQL
Sequence of Protein-tyrosine kinase 6 (Homo sapiens) (Q13882 whole entry, looked up): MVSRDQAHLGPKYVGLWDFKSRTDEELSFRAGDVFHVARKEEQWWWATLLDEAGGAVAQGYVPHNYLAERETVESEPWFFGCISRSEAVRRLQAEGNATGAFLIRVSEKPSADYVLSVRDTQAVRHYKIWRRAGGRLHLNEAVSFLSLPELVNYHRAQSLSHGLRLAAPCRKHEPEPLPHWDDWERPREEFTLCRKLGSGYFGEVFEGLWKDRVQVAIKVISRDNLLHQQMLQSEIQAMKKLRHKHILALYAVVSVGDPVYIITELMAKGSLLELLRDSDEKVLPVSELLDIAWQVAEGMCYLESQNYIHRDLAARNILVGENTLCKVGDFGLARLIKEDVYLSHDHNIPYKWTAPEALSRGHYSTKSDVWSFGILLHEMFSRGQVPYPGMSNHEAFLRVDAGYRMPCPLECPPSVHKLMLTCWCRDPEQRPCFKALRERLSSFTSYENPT

On to `CC(C)S(=O)(=O)c1ccc2nccc(Nc3ccc4scnc4c3)c2c1`, for which the residual activity in test [1] was 99%; in test [2] it was 97.1%; in test [3] it was 102%; in test [4], 92.1%; in test [5], 10.8%; in test [6] it was 96%. In addition, the residual activity was determined as 98.5% in test [7] and 84.6% in test [8].
As to `CNC(=O)c1ccc2c(c1)ncn2-c1ccc(CC(=O)OC(C)(C)C)cc1`, the residual activity in test [1] was found to be 97.4%; in test [2] it was 96.3%; in test [3], 98.7%; in test [4], 95%; in test [5], 29.9%; in test [6], 70.6%. For the same compound, the residual activity was 95.7% in test [7] and 99.3% in test [8].
For `Cc1cc(-c2cnc(N)c3c(-c4ccc5scnc5c4)csc23)n(C)n1`, the residual activity in test [1] stood at 98.3%; in test [2], 88.9%; in test [3], 88.8%; in test [4], 97.4%; in test [5], 8.67%; in test [6] it was 97.9%. Further, the figures for the residual activity in test [7] and in test [8] were 105% and 100%, respectively.
